Columns and labels:
mutant Kras = mutant Kras (Homo sapiens, UniProt P01116); test: Nucleotide exchange assay (SOS1-mediated, BODIPY FL GDP fluorescence); assay type: biochemical; conditions: 250 nM or 500 nM GDP-loaded K-Ras, SOS1 catalytic domain, fluorescent labelled GDP 0.36 μM, 70 minutes; read-out: IC50 against mutant Kras
Protocol: (§1) For example, 250 nM or 500 nM GDP-loaded K-Ras proteins (e.g., wildtype or a mutant thereof including those mentioned in Example 6), each was incubated with different concentrations of compounds (for example ˜60 μM, ˜20 μM, ˜6.7 μM, ˜2.2 μM, ˜0.7 μM, ˜0.2 μM subject compound). A control reaction without subject compound was also included. SOS1 (catalytic domain) protein was added to the K-Ras protein solution. The nucleotide exchange reaction was initiated by adding fluorescent labelled GDP (Guanosine 5′-Diphosphate, BODIPY™ FL 2′-(or-3′)—O—(N-(2-Aminoethyl) Urethane) to a final concentration of 0.36 μM. Fluorescence was measured every 30 s for 70 minutes at 490 nm/515 nm (excitation/emission) in a M1000Pro plate reader (Tecan). Data is exported and analyzed to calculate an IC50 using GraphPad Prism (GraphPad Software). Samples were tested with or without a subject compound disclosed herein including compounds exemplified in Table 1 to assess each compound's ability to inhibit K-Ras signaling or its IC50 against a given Ras protein (e.g., a given mutant K-Ras) of interest.

wildtype Kras = target: T1, wildtype Kras (Homo sapiens, UniProt P01116); test: as above; assay type: biochemical; conditions: 250 nM or 500 nM GDP-loaded K-Ras, SOS1 catalytic domain, fluorescent labelled GDP 0.36 μM, 70 minutes; read-out: IC50 against wildtype Kras
T1 construct: GST (N); made in house; host or cells: E. coli, e.g. BL21 (DE3)
Protocol: as §1

Sequence of mutant Kras (P01116 whole entry G12D, form open, the tested form may be a part): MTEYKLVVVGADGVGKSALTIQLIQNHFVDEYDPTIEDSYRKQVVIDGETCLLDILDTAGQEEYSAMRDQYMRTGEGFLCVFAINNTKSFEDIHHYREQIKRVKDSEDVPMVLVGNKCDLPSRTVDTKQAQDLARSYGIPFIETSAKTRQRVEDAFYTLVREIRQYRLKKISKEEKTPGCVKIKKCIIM
T1 sequence (P01116 1-188 isoform P01116-2): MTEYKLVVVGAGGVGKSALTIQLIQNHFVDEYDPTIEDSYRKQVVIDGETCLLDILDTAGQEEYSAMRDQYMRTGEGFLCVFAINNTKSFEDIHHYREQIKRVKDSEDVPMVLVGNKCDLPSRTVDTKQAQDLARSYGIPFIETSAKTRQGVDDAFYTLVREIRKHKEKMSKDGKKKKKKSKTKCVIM

| IC50 (mutant Kras) [nM] | IC50 (wildtype Kras) [nM] | Structure (SMILES) |
| --- | --- | --- |
| < 500 | 500 to 5000 | CN1CCC[C@H]1COc1nc(N2C[C@H](N)C[C@H](O)C2)c2cc(Cl)c(-c3cccc4sc(N)nc34)c(F)c2n1 [Compound 3, (3S,5R)-5-amino-1-(7-(2-aminobenzo[d]thiazol-4-yl)-6-chloro-8-fluoro-2-(((S)-1-methylpyrrolidin-2-yl)methoxy)quinazolin-4-yl)piperidin-3-ol] |
| < 500 | > 5000 | CN1CCC[C@H]1COc1nc(N2C[C@H](N)C[C@@H](O)C2)c2cc(Cl)c(-c3cccc4sc(N)nc34)c(F)c2n1 [Compound 4, (3R,5R)-5-amino-1-(7-(2-aminobenzo[d]thiazol-4-yl)-6-chloro-8-fluoro-2-(((S)-1-methylpyrrolidin-2-yl)methoxy)quinazolin-4-yl)piperidin-3-ol] |
| < 500 | 500 to 5000 | CN1CCC[C@H]1COc1nc(N2CC(N)CC(O)C2)c2cc(Cl)c(-c3cccc4sc(N)nc34)c(F)c2n1 (stereo partly drawn) [Compound 5, 5-amino-1-(7-(2-aminobenzo[d]thiazol-4-yl)-6-chloro-8-fluoro-2-(((S)-1-methylpyrrolidin-2-yl)methoxy)quinazolin-4-yl)piperidin-3-ol] |
| 500 to 5000 | > 5000 | CN1CCC[C@H]1COc1nc(N2C[C@H](N)C[C@H](F)C2)c2cc(Cl)c(-c3cccc4sc(N)nc34)c(F)c2n1 [Compound 6, 4-(4-((3R,5S)-3-amino-5-fluoropiperidin-1-yl)-6-chloro-8-fluoro-2-(((S)-1-methylpyrrolidin-2-yl)methoxy)quinazolin-7-yl)benzo[d]thiazol-2-amine] |
| 500 to 5000 | > 5000 | CN1CCC[C@H]1COc1nc(N2C[C@H](N)C[C@@H](F)C2)c2cc(Cl)c(-c3cccc4sc(N)nc34)c(F)c2n1 [Compound 7, 4-(4-((3R,5R)-3-amino-5-fluoropiperidin-1-yl)-6-chloro-8-fluoro-2-(((S)-1-methylpyrrolidin-2-yl)methoxy)quinazolin-7-yl)benzo[d]thiazol-2-amine] |
| < 500 | 500 to 5000 | CN1CCC[C@H]1COc1nc(N2CCC[C@@H](N)C2)c2cc(Cl)c(-c3cccc4sc(N)nc34)c(F)c2n1 [Compound 8, 4-(4-((R)-3-aminopiperidin-1-yl)-6-chloro-8-fluoro-2-(((S)-1-methylpyrrolidin-2-yl)methoxy)quinazolin-7-yl)benzo[d]thiazol-2-amine] |
| 500 to 5000 | 500 to 5000 | CN1CCC[C@H]1COc1nc(N2C[C@@H](N)[C@@H](F)C2)c2cc(Cl)c(-c3cccc4sc(N)nc34)c(F)c2n1 [Compound 10, 4-(4-((3R,4S)-3-amino-4-fluoropyrrolidin-1-yl)-6-chloro-8-fluoro-2-(((S)-1-methylpyrrolidin-2-yl)methoxy)quinazolin-7-yl)benzo[d]thiazol-2-amine] |
| < 500 | 500 to 5000 | CN1CCC[C@H]1COc1nc(N2CC[C@H](N)C2)c2cc(Cl)c(-c3cccc4sc(N)nc34)c(F)c2n1 [Compound 11, 4-(4-((S)-3-aminopyrrolidin-1-yl)-6-chloro-8-fluoro-2-(((S)-1-methylpyrrolidin-2-yl)methoxy)quinazolin-7-yl)benzo[d]thiazol-2-amine] |
| < 500 | 500 to 5000 | Nc1nc2c(-c3c(Cl)cc4c(N5CCNCC5)nc(OCC56CCCN5CCC6)nc4c3F)cccc2s1 [Compound 12, 4-(6-chloro-8-fluoro-4-(piperazin-1-yl)-2-((tetrahydro-1H-pyrrolizin-7a(5H)-yl)methoxy)quinazolin-7-yl)benzo[d]thiazol-2-amine] |
| < 500 | > 5000 | Nc1nc2c(-c3cnc4c(N5CC6CCC(C5)N6)nc(OC[C@@]56CCCN5C[C@H](F)C6)nc4c3)ccc(F)c2s1 [Compound 13, 4-(4-(3,8-diazabicyclo[3.2.1]octan-3-yl)-2-(((2R,7aS)-2-fluorotetrahydro-1H-pyrrolizin-7a(5H)-yl)methoxy)pyrido[3,2-d]pyrimidin-7-yl)-7-fluorobenzo[d]thiazol-2-amine] |
| < 500 | 500 to 5000 | COc1nc2c(N3CC4CCC(C3)N4)nc(OC[C@@]34CCCN3C[C@H](F)C4)nc2cc1-c1ccc(F)c2sc(N)nc12 [Compound 14, 4-(4-(3,8-diazabicyclo[3.2.1]octan-3-yl)-2-(((2R,7aS)-2-fluorotetrahydro-1H-pyrrolizin-7a(5H)-yl)methoxy)-6-methoxypyrido[3,2-d]pyrimidin-7-yl)-7-fluorobenzo[d]thiazol-2-amine] |
| < 500 | > 5000 | COc1nc2c(N3C4CCC3CNC4)nc(OC[C@@]34CCCN3C[C@H](F)C4)nc2cc1-c1ccc(F)c2sc(N)nc12 [Compound 15, 4-(4-(3,8-diazabicyclo[3.2.1]octan-8-yl)-2-(((2R,7aS)-2-fluorotetrahydro-1H-pyrrolizin-7a(5H)-yl)methoxy)-6-methoxypyrido[3,2-d]pyrimidin-7-yl)-7-fluorobenzo[d]thiazol-2-amine] |
| < 500 | > 5000 | Nc1nc2c(-c3cc4nc(OCC56CCCN5CCC6)nc(N5CC6CCC(C5)N6)c4nc3O)ccc(F)c2s1 [Compound 16, 7-(2-amino-7-fluorobenzo[d]thiazol-4-yl)-4-(3,8-diazabicyclo[3.2.1]octan-3-yl)-2-((tetrahydro-1H-pyrrolizin-7a(5H)-yl)methoxy)pyrido[3,2-d] pyrimidin-6-ol] |
| < 500 | 500 to 5000 | COc1nc2c(N3CC4CCC(C3)N4)nc(OCC34CCCN3CCC4)nc2cc1-c1ccc(F)c2sc(N)nc12 [Compound 17, 4-(4-(3,8-diazabicyclo[3.2.1]octan-3-yl)-6-methoxy-2-((tetrahydro-1H-pyrrolizin-7a(5H)-yl)methoxy)pyrido[3,2-d]pyrimidin-7-yl)-7-fluorobenzo[d]thiazol-2-amine] |
| 500 to 5000 | > 5000 | COc1nc2c(N3CCNCC3)nc(OC[C@@]34CCCN3C[C@H](F)C4)nc2cc1-c1ccc(F)c2sc(N)nc12 [Compound 18, 7-fluoro-4-(2-(((2R,7aS)-2-fluorotetrahydro-1H-pyrrolizin-7a(5H)-yl)methoxy)-6-methoxy-4-(piperazin-1-yl)pyrido[3,2-d]pyrimidin-7-yl) benzo[d]thiazol-2-amine] |
| < 500 | < 500 | N#Cc1c(N)sc2c(F)ccc(-c3c(Cl)cc4c(N5C[C@H]6CC[C@@H](C5)N6)nc(OC[C@@]56CCCN5C[C@H](F)C6)nc4c3F)c12 [Compound 19, 4-(4-((1R,5S)-3,8-diazabicyclo[3.2.1]octan-3-yl)-6-chloro-8-fluoro-2-(((2R,7aS)-2-fluorotetrahydro-1H-pyrrolizin-7a(5H)-yl)methoxy)quinazolin-7-yl)-2-amino-7-fluorobenzo[b]thiophene-3-carbonitrile] |
| < 500 | 500 to 5000 | Nc1sc2c(F)ccc(-c3c(Cl)cc4c(N5C[C@H]6CC[C@@H](C5)N6)nc(OC[C@@]56CCCN5C[C@H](F)C6)nc4c3F)c2c1C1CC1 [Compound 20, 4-(4-((1R,5S)-3,8-diazabicyclo[3.2.1]octan-3-yl)-6-chloro-8-fluoro-2-(((2R,7aS)-2-fluorotetrahydro-1H-pyrrolizin-7a(5H)-yl)methoxy)quinazolin-7-yl)-3-cyclopropyl-7-fluorobenzo[b]thiophen-2-amine] |
| < 500 | < 500 | Cc1c(N)sc2c(F)ccc(-c3c(Cl)cc4c(N5C[C@H]6CC[C@@H](C5)N6)nc(OC[C@@]56CCCN5C[C@H](F)C6)nc4c3F)c12 [Compound 21, 4-(4-((1R,5S)-3,8-diazabicyclo[3.2.1]octan-3-yl)-6-chloro-8-fluoro-2-(((2R,7aS)-2-fluorotetrahydro-1H-pyrrolizin-7a(5H)-yl)methoxy)quinazolin-7-yl)-7-fluoro-3-methylbenzo[b]thiophen-2-amine] |
| < 500 | < 500 | Cc1c(N)sc2cccc(-c3c(Cl)cc4c(N5C[C@H]6CC[C@@H](C5)N6)nc(OC[C@@]56CCCN5C[C@H](F)C6)nc4c3F)c12 [Compound 22, 4-(4-((1R,5S)-3,8-diazabicyclo[3.2.1]octan-3-yl)-6-chloro-8-fluoro-2-(((2R,7aS)-2-fluorotetrahydro-1H-pyrrolizin-7a(5H)-yl)methoxy)quinazolin-7-yl)-3-methylbenzo[b]thiophen-2-amine] |

— patent US12286427B2, “Heterocyclic compounds and uses thereof” (Kumquat Biosciences Inc., priority 2020, dated 2025)
